Reference: ChEMBL document CHEMBL1201862, “PubChem BioAssay data set” (2004)
Each block holds one molecule with its values, some of them ahead of it. Activity calls are given as the source filed them.

Columns and labels:
[1] = Luminescence Cell-Based Dose Retest to Confirm Inhibitors of Cancer Stem Cells. [Related pubchem assays (depositor defined):AID2717, AID2721]; format: functional; conditions: Homo sapiens
[2] = molecular target: Heat shock protein HSP 90-alpha (Homo sapiens, UniProt P07900); format: functional, organism-based
INS1 = assay: INS-1E survival protection against cytokine death – cell-based, luminescence, retest, dose response (AID 449756); format: functional; conditions: Rattus norvegicus;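 further: cell death triggered by IL-1 beta plus TNF-alpha plus IFN-gamma mixture; protective hits raise ATP signal compared with cytokine alone wells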
[3] = HGIII-sPLA2 enzyme inhibition potency – biochemical, QFRET, IC50, dose response (AID 743457);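 further: green fluorescence rise as the enzyme cleaves BODIPY PC-A2 in liposomes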
[4] = molecular target: NAD-dependent protein deacylase sirtuin-5, mitochondrial (Homo sapiens, UniProt Q9NXA8); assay: sirtuin-5 deacylation blockers, concentration series – biochemical, fluorescence imaging, cherry-pick, set 5, dose response (AID 720591);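 further: desuccinylation of succinyl peptide AMC substrate read as fluorescence after trypsin release; potency of inhibitors that lower fluorescence and may act on trypsin instead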
Sequence of NAD-dependent protein deacylase sirtuin-5, mitochondrial (Q9NXA8 whole entry): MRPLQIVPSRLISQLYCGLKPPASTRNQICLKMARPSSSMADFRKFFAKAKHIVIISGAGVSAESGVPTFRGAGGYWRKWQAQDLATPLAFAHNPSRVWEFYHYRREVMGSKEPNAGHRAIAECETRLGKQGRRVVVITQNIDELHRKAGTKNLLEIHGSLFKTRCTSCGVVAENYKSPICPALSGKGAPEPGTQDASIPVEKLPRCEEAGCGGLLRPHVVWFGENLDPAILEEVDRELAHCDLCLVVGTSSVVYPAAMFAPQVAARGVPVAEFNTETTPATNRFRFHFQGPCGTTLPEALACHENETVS

[5] = reduction of Shn3 3'UTR-driven luciferase in osteoblasts – cell-based, Clone20 osteoblasts, firefly luciferase, cherry-picked, dose response (AID 624132); format: functional;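 further: firefly luciferase luminescence from reporter carrying the Shn3 3'UTR in osteoblasts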
[6] = loss of viability in HepG2 cells – cell-based, CellTiter-Glo, cherry-picked, cytotoxicity control for Shn3 inhibitor project, dose response (AID 624134); format: functional
[7] = Shn3 3'UTR reporter signal decrease – cell-based, Clone20 osteoblasts, firefly luciferase, cherry-pick, set 2, Schnurri-3 inhibitor project, dose response (AID 720490); format: functional;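 further: actives lower the luminescence signal as inhibitors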
[8] = molecular target: Luciferin 4-monooxygenase (Photinus pyralis, UniProt P08659); assay: inhibition of purified Photinus pyralis luciferase – biochemical, luminescence, dose response (AID 1891)
Sequence of Luciferin 4-monooxygenase (P08659 whole entry): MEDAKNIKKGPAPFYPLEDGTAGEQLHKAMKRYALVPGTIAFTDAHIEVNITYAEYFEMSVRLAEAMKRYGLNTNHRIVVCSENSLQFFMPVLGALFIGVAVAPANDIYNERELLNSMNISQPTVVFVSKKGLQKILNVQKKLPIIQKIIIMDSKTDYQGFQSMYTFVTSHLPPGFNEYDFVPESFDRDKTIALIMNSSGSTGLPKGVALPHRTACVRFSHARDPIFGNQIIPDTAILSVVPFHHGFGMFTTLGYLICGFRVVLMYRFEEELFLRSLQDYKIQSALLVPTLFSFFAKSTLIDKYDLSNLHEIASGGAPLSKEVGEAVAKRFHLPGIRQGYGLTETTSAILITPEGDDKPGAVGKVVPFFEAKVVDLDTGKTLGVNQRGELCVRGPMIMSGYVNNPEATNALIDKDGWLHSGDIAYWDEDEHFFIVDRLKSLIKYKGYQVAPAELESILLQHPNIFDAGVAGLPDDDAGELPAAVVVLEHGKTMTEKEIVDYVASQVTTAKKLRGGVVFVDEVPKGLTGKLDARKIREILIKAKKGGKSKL

[9] = Luminescence Cell-Based Dose Confirmation HTS to Identify Inhibitors of Platelet Dense Granule Release. [Related pubchem assays: 1663 (Primary HTS), 1678 (Summary of Project)]; format: functional
Kallikrein-7 = Kallikrein-7 (Homo sapiens, UniProt P49862); assay: Fluorescence Intensity-based biochemical primary high throughput dose response assay to identify activators of kallikrein-7 (K7) zymogen.
Sequence of Kallikrein-7 (P49862 whole entry): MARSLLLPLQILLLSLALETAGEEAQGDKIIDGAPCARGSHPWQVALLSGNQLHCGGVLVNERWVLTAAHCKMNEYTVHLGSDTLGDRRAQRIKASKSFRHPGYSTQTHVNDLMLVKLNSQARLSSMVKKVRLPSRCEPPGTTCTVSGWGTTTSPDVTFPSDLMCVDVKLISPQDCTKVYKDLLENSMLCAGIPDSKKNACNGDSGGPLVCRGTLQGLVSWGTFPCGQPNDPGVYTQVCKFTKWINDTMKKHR

Paired box protein Pax-8 = Paired box protein Pax-8 (Homo sapiens, UniProt Q06710); assay: PAX8 transcriptional activity inhibition in RMG-I – RMG-I cells, luciferase, cherry-pick, dose response (AID 687027); format: functional, cell-based;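 further: luciferase reporter driven by Pax8 target thyroperoxidase promoter measured by SteadyGlo luminescence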
Sequence of Paired box protein Pax-8 (Q06710 whole entry): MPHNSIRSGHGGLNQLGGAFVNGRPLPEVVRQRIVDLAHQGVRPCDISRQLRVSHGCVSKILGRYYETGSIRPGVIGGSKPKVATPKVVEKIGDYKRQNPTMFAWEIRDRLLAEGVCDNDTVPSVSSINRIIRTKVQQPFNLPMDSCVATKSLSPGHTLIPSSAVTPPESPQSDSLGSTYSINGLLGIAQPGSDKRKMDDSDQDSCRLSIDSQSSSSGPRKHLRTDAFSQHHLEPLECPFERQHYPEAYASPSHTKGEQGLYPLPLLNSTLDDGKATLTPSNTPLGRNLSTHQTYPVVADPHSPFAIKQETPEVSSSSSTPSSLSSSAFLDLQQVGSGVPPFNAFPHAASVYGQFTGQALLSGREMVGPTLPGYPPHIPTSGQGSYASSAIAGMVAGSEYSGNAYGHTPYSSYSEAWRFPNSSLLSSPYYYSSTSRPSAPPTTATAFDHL

[10] = reduced cellular PGC1a acetyl-lysine signal – cell-based, cherry-picked samples, dose response (AID 720514); format: functional;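 further: potency may reflect raised or lowered acetylation signal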
[11] = CMV-driven luciferase expression suppression in HEK293 – cell-based, luminescence, dry powder, counter-screen for Pax8 inhibitor project, dose response (AID 743020); format: functional
[12] = OVCAR8 cell viability loss – plate reader, dry powder samples, PAX8 project, dose response (AID 743197); format: functional, cell-based; conditions: OVCAR-8
fMet-Leu-Phe receptor = fMet-Leu-Phe receptor (Homo sapiens, UniProt P21462); assay: formyl peptide receptor binders – dose response (AID 519); format: functional
Sequence of fMet-Leu-Phe receptor (P21462 whole entry): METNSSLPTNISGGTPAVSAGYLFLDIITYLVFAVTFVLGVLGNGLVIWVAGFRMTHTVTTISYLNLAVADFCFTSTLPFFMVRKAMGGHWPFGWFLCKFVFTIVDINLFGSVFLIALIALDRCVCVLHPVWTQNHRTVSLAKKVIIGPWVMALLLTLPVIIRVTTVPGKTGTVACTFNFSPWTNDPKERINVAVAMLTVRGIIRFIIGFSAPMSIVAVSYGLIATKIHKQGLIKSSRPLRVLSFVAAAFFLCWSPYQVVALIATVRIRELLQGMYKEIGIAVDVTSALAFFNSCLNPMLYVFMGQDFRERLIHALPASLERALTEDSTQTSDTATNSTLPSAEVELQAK

Protein Wnt-3a = Protein Wnt-3a (Mus musculus, UniProt P27467); assay: SAR analysis of small molecule antagonists of Gli-SUFU in a Wnt3a luminescent reporter assay.; format: functional
Sequence of Protein Wnt-3a (P27467 whole entry): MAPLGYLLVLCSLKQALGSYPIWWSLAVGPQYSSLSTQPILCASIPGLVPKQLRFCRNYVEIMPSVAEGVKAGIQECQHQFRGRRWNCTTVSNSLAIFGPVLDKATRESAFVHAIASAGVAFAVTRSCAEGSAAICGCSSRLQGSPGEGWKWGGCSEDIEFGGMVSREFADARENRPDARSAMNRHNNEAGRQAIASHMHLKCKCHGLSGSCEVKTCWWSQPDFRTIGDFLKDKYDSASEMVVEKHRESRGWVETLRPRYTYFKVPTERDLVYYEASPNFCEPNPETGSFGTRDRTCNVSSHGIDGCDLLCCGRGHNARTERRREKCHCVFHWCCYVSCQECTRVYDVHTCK

[13] = Luminescence Cell-Based Dose Response HTS to Identify Activators of Luciferase Translation or Activity in H4 […] Cells. [Related pubchem assays: 1829 (Project Summary), 1814 (Primary HTS)]; format: functional
[14] = viability loss in Vero cells – cytotoxicity control for Vif-APOBEC3G degradation inhibitor project, dose response (AID 1117358); format: functional; conditions: Vero
[15] = non-specific 3'UTR reporter inhibition in Clone20-Shn3RL – cell-based, Renilla luciferase, cherry-picked, counter-screen for Shn3 inhibitor project, dose response (AID 624133); format: functional

Compound: O=C(/C=C/c1ccccc1)NC(=S)NNC(=O)c1cnccn1
AC50 [1]: 8.78 µM (active)
AC50 [2]: 2.87 µM (active)
AC50 (INS1): 1.39 µM (active)
IC50 [3]: 66.8 µM (inactive)

Compound: O=C(Nc1nc(-c2ccccc2)cs1)C1CCCCN1S(=O)(=O)c1ccccc1 (stereo unspecified)
AC50 [5]: 5.14 µM (active)
AC50 [6]: 58 µM (active)
AC50 [7]: 5.89 µM (active)

Compound: CN1CCSc2ccc(C(=O)NCc3ccccc3F)cc21
EC50 [8]: > 112 µM (not active)
EC50 [9]: > 112 µM (not active)
EC50 (Kallikrein-7): > 23.2 µM (inactive)

Compound: C[C@@H]1CCCCO[C@H](CN(C)Cc2ccc3c(c2)OCO3)[C@@H](C)CN([C@@H](C)CO)C(=O)c2cc(NC(=O)Nc3ccc(C(F)(F)F)cc3)ccc2O1
AC50 (Paired box protein Pax-8): 17.3 µM (active)
AC50 [10]: 11.3 µM (active)
AC50 [11]: 41.9 µM (active)
AC50 [12]: 19.6 µM (active)

Compound: COc1ccccc1NC(=O)CSc1nnc(Cn2nnc(-c3ccccc3)n2)n1-c1ccccc1
Ki (fMet-Leu-Phe receptor): > 66.7 µM (inactive)

Compound: Cn1ncc2c(Nc3ccc4ccccc4c3)ncnc21
EC50 [13]: 1.89 µM (active)
CC50 [14]: > 40 µM (active)

Compound: O=C(NCc1cccnc1)C1c2ccccc2C(=O)N1C1CCCCCCC1 (stereo unspecified)
Ki (fMet-Leu-Phe receptor): 40.9 µM (inactive)

Compound: O=C(Nc1ccc(Cl)cc1)c1cc(S(=O)(=O)N2CCOCC2)cs1
AC50 [5]: 4.23 µM (active)
AC50 [6]: 46.9 µM (active)
AC50 [15]: 14.7 µM (active)
AC50 [7]: 4.83 µM (active)

Continued, values first:

AC50 [4]: > 30 µM (inactive)
Compound: Cc1ccc(SCc2cn3ccccc3n2)cc1

IC50 (Protein Wnt-3a): > 21.8 µM (inactive)
Compound: CN1CCN(c2cc(NC(=O)c3ccccc3)ncn2)CC1

EC50 (Kallikrein-7): > 69.5 µM (inactive)
Compound: COC(=O)C1=CN(CC2CCCO2)C=C(C(=O)OC)C1c1ccsc1 (stereo unspecified)

AC50 [4]: > 30 µM (inactive)
Compound: O=C(NCC1(N2CCOCC2)CCCCC1)c1cccc(S(=O)(=O)Nc2ccc(F)cc2)c1
